The format of this data set is physicochemical. The settings on record: for Head-space: headspace above about 2E+06 ng/mL solution in isopropyl myristate (IPM); for Head-space / Air/IPM partition coef: 30° C., average of three replicates; for Air/IPM partition coef: in isopropyl myristate (IPM). How it is done: Perfume headspace data is collected for various materials according to the method provided below.
The partition coefficients are calculated by determining the amount of PRM in the headspace above a solution with a known concentration using a GC/FID-MS (Agilent 7890 and 5977A MSD) with a thermal desorption unit (Gerstel MPS2) and Dynamic Headspace Sampler (Gerstel DHS). This technique allows for automated headspace collections using the MultiPurposeSampler (MPS). The PRMs of interest are prepared at a known concentration in isopropyl myristate (IPM) or propylene glycol monomethyl ether (DPM), and 1 mL is pipetted in a 20 mL headspace vial.
DHS Conditions: The sample is tempered in the unit at 30° C. A helium stream at 10 mls/min purges 20 mL of headspace containing the analytes above the sample onto the sorbent tube (TDU) containing 25 mg of TenaxTA 35/60 (Restek cat #25701).
TDU conditions: The sorbent tube is desorbed with a program starting at 30° C. solvent vent for 2 min then ramped at 720° C./min to 270° C. and held for 8 min. The analytes are refocused on a glass bead liner at −60° C. then desorbed at a rate of 12° C./s to 270° C. onto the GC column.
GC/MS conditions: Agilent 122-5532 UI column of 30 m×250 μm×0.25 μm and a flow rate of 1.5 mL/min is utilized. A temperature program of 50° C. to 280° C. with a 2 min hold and a ramp rate of 12° C./min is suitable. Scan or SIM mode MSD parameters with a solvent delay for the DPM are applied to achieve appropriate detection.
Analytical standards can be obtained from AK Scientific, Inc., Union City, CA 94587, USA. A stock solution is prepared at approximately 0.5 g/L. The stock solution is then diluted to 4 to 5 concentrations ranging from approximately 0.05 g/L to 0.00005 g/L. These standard solutions are then analyzed by GC/MS. This analysis is performed by using the same TDU desorption and GC/MS conditions described above with a 1 μL liquid injection onto the TDU tube instead of the DHS collection. The amount injected on column and the area responses of the target m/z are utilized to create a calibration plot with a linear fit.
Quantification of the headspace is performed by the PRM target m/z area response of the perfume component and the linear equation of the calibration plot.
Perfume headspace data is collected for various materials according to the Headspace Method provided above in the Test Methods section. The Air/Solvent partition coefficients are determined and indexed accordingly (e.g., where the partition coefficient for OTNE is set at 1.00).
Results for 2-adamantyl propanoate, 2-adamantyl acetate, and 2-methyl-2-adamantyl acetate in isopropyl myristate (IPM) are provided below in Table 1.

The results in this text go back to patent US20240336868A1, “COMPOSITIONS COMPRISING ADAMANTYL ESTER-CONTAINING COMPOUNDS” (The Procter & Gamble Company, priority 2023, published 2024).

For `CC(=O)C1(C)CC2=C(CCCC2(C)C)CC1C` (stereo not drawn) [OTNE, 1-(1,2,3,4,5,6,7,8-Octahydro-2,3,8,8-tetramethyl-2-naphthalenyl) ethanone, reference compound], the “OTNE Indexed Air/IPM partition coefficient” value is 1.00, the Head-space came to 0.0216 ng/mL and the Air/IPM partition coef was 1.04E−08 ng/mL in air per ng/mL in IPM.

Turning to `CC(=O)OC1(C)C2CC3CC(C2)CC1C3` (stereo not drawn) [2-methyl-2-adamantyl acetate], the “OTNE Indexed Air/IPM partition coefficient” value is recorded as 8.67, the Head-space came to 0.1874 ng/mL and the Air/IPM partition coef is given as 9.05E−08 ng/mL in air per ng/mL in IPM.

Turning to `CC(=O)OC1C2CC3CC(C2)CC1C3` (stereo not drawn) [2-adamantyl acetate], the “OTNE Indexed Air/IPM partition coefficient” value came out at 8.30, the Head-space is 0.1793 ng/mL and the Air/IPM partition coef is listed as 8.66E−08 ng/mL in air per ng/mL in IPM.

`CCC(=O)OC1C2CC3CC(C2)CC1C3` (stereo not drawn) [2-adamantyl propanoate]: the “OTNE Indexed Air/IPM partition coefficient” value worked out at 5.47, the Head-space worked out at 0.1182 ng/mL and the Air/IPM partition coef was 5.71E−08 ng/mL in air per ng/mL in IPM.
